# Test results: ChEMBL document CHEMBL1139780, “Pentamer is the minimum structure for oligomannosylpeptoids to bind to concanavalin A” (Bioorg Med Chem Lett, 2007)
# Active and inactive are the calls of the source. No cut-off for these calls is given here.
# Biological target: Concanavalin-A (Canavalia ensiformis) (UniProt P02866)
# Assay: Binding affinity to jack bean concanavalin A by enzyme-linked lectin assay
# Sequence of Concanavalin-A (Canavalia ensiformis) (P02866 whole entry): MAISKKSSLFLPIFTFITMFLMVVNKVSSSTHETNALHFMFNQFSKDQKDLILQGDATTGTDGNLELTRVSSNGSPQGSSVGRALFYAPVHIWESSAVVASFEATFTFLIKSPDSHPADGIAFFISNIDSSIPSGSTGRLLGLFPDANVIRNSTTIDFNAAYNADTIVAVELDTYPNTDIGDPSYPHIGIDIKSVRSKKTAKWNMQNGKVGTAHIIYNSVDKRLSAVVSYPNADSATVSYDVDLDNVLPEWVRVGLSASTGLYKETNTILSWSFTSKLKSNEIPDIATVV
row,Activity,SMILES
1,Active,CN(C)c1cccc2c(S(=O)(=O)N(CCO[C@H]3O[C@H](CO)[C@@H](O)[C@H](O)[C@@H]3O)CC(=O)N(CCO[C@H]3O[C@H](CO)[C@@H](O)[C@H](O)[C@@H]3O)CC(=O)N(CCO[C@H]3O[C@H](CO)[C@@H](O)[C@H](O)[C@@H]3O)CC(N)=O)cccc12
2,Active,NC(=O)CN(CCO[C@H]1O[C@H](CO)[C@@H](O)[C@H](O)[C@@H]1O)C(=O)CN(CCO[C@H]1O[C@H](CO)[C@@H](O)[C@H](O)[C@@H]1O)C(=O)CN(CCO[C@H]1O[C@H](CO)[C@@H](O)[C@H](O)[C@@H]1O)C(=O)CN(CCO[C@H]1O[C@H](CO)[C@@H](O)[C@H](O)[C@@H]1O)C(=O)CN(CCO[C@H]1O[C@H](CO)[C@@H](O)[C@H](O)[C@@H]1O)C(=O)CNC(=O)CCCCCNC(=O)CCCCC1SC[C@@H]2NC(=O)N[C@H]12 (stereo not given in full)
3,Active,NC(=O)CCN(CCO[C@H]1O[C@H](CO)[C@@H](O)[C@H](O)[C@@H]1O)C(=O)CN(CCO[C@H]1O[C@H](CO)[C@@H](O)[C@H](O)[C@@H]1O)C(=O)CN(CCO[C@H]1O[C@H](CO)[C@@H](O)[C@H](O)[C@@H]1O)C(=O)CN(CCO[C@H]1O[C@H](CO)[C@@H](O)[C@H](O)[C@@H]1O)C(=O)CN(CCO[C@H]1O[C@H](CO)[C@@H](O)[C@H](O)[C@@H]1O)C(=O)CN(CCO[C@H]1O[C@H](CO)[C@@H](O)[C@H](O)[C@@H]1O)C(=O)CNC(=O)CCCCC1SC[C@@H]2NC(=O)N[C@H]12 (stereo not given in full)
4,Active,NC(=O)CCN(CCO[C@H]1O[C@H](CO)[C@@H](O)[C@H](O)[C@@H]1O)C(=O)CN(CCO[C@H]1O[C@H](CO)[C@@H](O)[C@H](O)[C@@H]1O)C(=O)CN(CCO[C@H]1O[C@H](CO)[C@@H](O)[C@H](O)[C@@H]1O)C(=O)CN(CCO[C@H]1O[C@H](CO)[C@@H](O)[C@H](O)[C@@H]1O)C(=O)CN(CCO[C@H]1O[C@H](CO)[C@@H](O)[C@H](O)[C@@H]1O)C(=O)CN(CCO[C@H]1O[C@H](CO)[C@@H](O)[C@H](O)[C@@H]1O)C(=O)CNC(=O)CCCCCNC(=O)CCCCC1SC[C@@H]2NC(=O)N[C@H]12 (stereo not given in full)
5,Active,NC(=O)CN(CCO[C@H]1O[C@H](CO)[C@@H](O)[C@H](O)[C@@H]1O)C(=O)CN(CCO[C@H]1O[C@H](CO)[C@@H](O)[C@H](O)[C@@H]1O)C(=O)CN(CCO[C@H]1O[C@H](CO)[C@@H](O)[C@H](O)[C@@H]1O)C(=O)CN(CCO[C@H]1O[C@H](CO)[C@@H](O)[C@H](O)[C@@H]1O)C(=O)CN(CCO[C@H]1O[C@H](CO)[C@@H](O)[C@H](O)[C@@H]1O)C(=O)CNC(=O)CCCCC1SC[C@@H]2NC(=O)N[C@H]12 (stereo not given in full)
